The results in this text go back to patent US20230322715A1, “BROAD SPECTRUM ANTI-CANCER COMPOUNDS” (The Regents of the University of California, priority 2019, published 2023).

Where two headings read alike, the source gives them in different places.

One may read the IC50 as the concentration that gives 50% inhibition. By Ki is commonly meant the dissociation constant of the complex between target and ligand, obtained from inhibition or displacement. By chromatographic logD is commonly meant a lipophilicity value derived from retention on a column. The low end stands for lower lipophilicity, the high end for higher lipophilicity.

Data set [1] addresses ALKBH5 (Homo sapiens (Human), UniProt Q6P6C2). In words: Fluorescence enzymatic inhibition assay (m6A7-Broccoli RNA / DFHBI-1T) against ALKBH5. The format is biochemical. The procedure:
(§1) Inhibitors were added in concentrations ranging from 0.008-40 μM; all inhibitors were dissolved in DMSO and added to a final concentration of 0.2% DMSO. […] After incubation at room temperature for 2 hours, the plates were left at 4° C. overnight (16 hours) to allow DFHBI-1T to bind to A7-Broccoli RNA. […] Sigmoidal dose-response curves were fitted in GraphPad Prism 6. All assays were performed in triplicate, with additional repetitions added as necessary.

Data set [2] has as its target FTO (Homo sapiens (Human), UniProt Q9C0B1). Description: Fluorescence enzymatic inhibition assay (m6A7-Broccoli RNA / DFHBI-1T) against FTO. The format is biochemical. The procedure:
In order to determine their efficacy as FTO inhibitors, the compounds were screened by a fluorescence enzymatic inhibition assay developed previously by the Jaffrey lab.^44 Briefly, a nonfluorescent methylated RNA substrate termed “m6A7-Broccoli” is incubated with FTO in the presence of 2-oxoglutarate (300 μM), (NH4)2Fe(SO4)2·6H2O (300 μM), and L-ascorbate (2 mM) for 2 hours at room temperature in reaction buffer (50 mM NaHEPES, pH 6).
as §1

Data set [3] is described as follows: elogD / log D determination.
Data set [4] deals with YTHDF2 (Homo sapiens (Human), UniProt Q9Y5A9). In words: In vitro FRET assay for binding affinities of YTH inhibitors, YTHDF2. An excerpt: FIG. 8-2 depicts possible design and synthesis of compound libraries. In Vitro FRET assay development could yield a high throughput FRET assay to determine binding affinities for potential YHT inhibitors against YTHDF1, YTHDF2, YTHDF3, or other similar proteins.
Sequence of YTHDF2 (Q9Y5A9 whole entry): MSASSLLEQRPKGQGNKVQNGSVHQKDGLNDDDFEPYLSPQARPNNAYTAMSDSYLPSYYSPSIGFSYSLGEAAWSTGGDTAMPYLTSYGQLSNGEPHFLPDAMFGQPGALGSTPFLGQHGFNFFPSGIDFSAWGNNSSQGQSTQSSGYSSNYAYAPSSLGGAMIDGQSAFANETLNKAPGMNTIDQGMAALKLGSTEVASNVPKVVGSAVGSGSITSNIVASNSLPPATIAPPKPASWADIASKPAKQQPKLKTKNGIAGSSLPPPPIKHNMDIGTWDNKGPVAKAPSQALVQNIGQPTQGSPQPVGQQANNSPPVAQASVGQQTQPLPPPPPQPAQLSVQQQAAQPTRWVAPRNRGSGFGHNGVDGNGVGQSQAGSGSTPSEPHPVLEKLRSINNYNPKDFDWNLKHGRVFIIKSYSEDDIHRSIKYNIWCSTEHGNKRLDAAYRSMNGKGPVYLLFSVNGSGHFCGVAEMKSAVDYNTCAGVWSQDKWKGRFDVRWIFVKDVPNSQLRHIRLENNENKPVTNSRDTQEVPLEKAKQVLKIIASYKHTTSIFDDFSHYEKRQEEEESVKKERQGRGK

Where [5] appears, read: ALK series, permeability data and IC50 tables, read-out: Enzymatic IC50 ALKBH5.
[6] abbreviates: Table 700 compounds, read-out: Enzymatic IC50 FTO.
The mark [7] stands for this setting: Table 700 compounds, read-out: Enzymatic IC50 ALKBH5.
[8] abbreviates: m6A7-Broccoli fluorescence assay, 0.250 μM ALKBH5, read-out: Enzymatic IC50 ALKBH5.
The mark [9] stands for this setting: Table 800 compounds, read-out: FTO IC50.
[10] abbreviates: Table 800 compounds, read-out: ALKBH5 IC50.
The mark [11] stands for this setting: m6A7-Broccoli fluorescence assay, 0.250 μM FTO, inhibitor up to 40 μM, triplicate, read-out: Enzymatic IC50 FTO.

Sequence of ALKBH5 (Q6P6C2 whole entry): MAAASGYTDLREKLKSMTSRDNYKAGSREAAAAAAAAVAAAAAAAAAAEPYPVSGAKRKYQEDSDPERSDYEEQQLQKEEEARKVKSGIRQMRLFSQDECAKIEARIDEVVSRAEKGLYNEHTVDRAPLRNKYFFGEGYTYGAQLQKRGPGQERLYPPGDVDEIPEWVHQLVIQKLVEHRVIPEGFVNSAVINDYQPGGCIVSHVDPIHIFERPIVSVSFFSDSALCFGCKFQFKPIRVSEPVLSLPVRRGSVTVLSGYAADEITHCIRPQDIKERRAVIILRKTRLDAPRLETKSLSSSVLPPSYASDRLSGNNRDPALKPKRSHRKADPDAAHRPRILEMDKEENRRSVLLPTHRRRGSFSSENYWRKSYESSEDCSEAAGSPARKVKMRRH
Sequence of FTO (Q9C0B1 whole entry): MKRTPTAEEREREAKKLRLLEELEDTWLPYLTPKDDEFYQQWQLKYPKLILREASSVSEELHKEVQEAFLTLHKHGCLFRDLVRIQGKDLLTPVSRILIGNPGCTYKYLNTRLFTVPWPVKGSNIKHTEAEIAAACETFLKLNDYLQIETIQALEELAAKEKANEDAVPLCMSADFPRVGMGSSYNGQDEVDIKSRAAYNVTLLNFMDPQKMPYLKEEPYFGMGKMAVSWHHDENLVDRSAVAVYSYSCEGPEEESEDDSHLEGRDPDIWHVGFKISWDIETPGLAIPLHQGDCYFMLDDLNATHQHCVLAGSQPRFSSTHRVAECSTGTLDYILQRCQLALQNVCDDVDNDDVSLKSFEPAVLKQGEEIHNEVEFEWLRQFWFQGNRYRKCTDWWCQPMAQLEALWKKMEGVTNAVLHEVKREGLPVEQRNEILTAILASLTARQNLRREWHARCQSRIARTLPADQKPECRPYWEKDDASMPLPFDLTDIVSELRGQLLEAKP

For the compound `COC(=O)C1COC(c2cc(C(C)(C)C)ccc2O)N1` (stereo not shown) [ALK-19], the half-inhibitory concentration (IC50) in data set [1] (setting [5]) is 24 ± 4.2 µM.
For the compound `O=C(O)N1CCC(F)(C2NCCS2)C1` (stereo not shown) [ALK-03], the IC50 in data set [2] (setting [6]) and in data set [1] (setting [7]) was greater than 40 µM throughout. This compound also had an elogD in data set [3] (Table 700 compounds) of 0.62.
Turning to `O=C1N[C@H](C(=O)O)CS1` [ALK-10], the IC50 was greater than 40 µM in data set [2] (setting [6]) and 1.7 ± 1.1 µM in data set [1] (setting [7]). Also, the elogD in data set [3] (Table 700 compounds) was determined as 0.54.
As to `c1ccc(-c2ccc(CNCC3(N4CCCC4)COC3)o2)cc1` [TR-FTO-35], in data set [1] (setting [8]), the IC50 was 55 µM. In data set [3], the elogD turned out to be 1.14.
For the compound `COc1cc(NC(=O)C2CC(Oc3ccccc3)CN2C(=O)c2ccccc2OC)cc(OC)c1` (stereo not shown) [TR-FTO 2-01], in data set [2] (read-out: Enzymatic IC50 FTO), the IC50 stood at 0.61 ± 0.17 µM.
With `COC(=O)C1COC(c2ccc(-c3ccccc3)o2)N1` (stereo not shown) [ALK-18], the IC50 in data set [2] (setting [6]) worked out at 14.2 ± 3.1 µM; in data set [1] (setting [5]), 5.4 ± 1.4 µM; in data set [1] (setting [7]), 5.4 ± 0.7 µM. The compound also came in with an elogD in data set [3] (Table 700 compounds) of 0.73.
`O=S(=O)(Nc1ccccc1N1CCCCC1)c1ccc(OC(F)(F)F)cc1` [TR-ALKBH5-36]: the half-maximal inhibitory concentration (IC50) in data set [2] (setting [9]) was determined as 23.2 µM; in data set [1] (setting [10]) it was 0.4 µM. The compound also displayed an elogD in data set [3] (Table 800 compounds) of 1.13.
Taken in the same sequence, the figures for `CN(CCCN1c2ccccc2CCc2ccccc21)S(=O)(=O)c1ccc(OC(F)(F)F)cc1` [TR-ALKBH5-40] were 59.4 µM, 2.3 µM and 2.05.
On to `Fc1ccc2[nH]cc(CNCC3(N4CCCC4)COC3)c2c1` [TR-FTO-11], for which the IC50 in data set [1] (setting [8]) came to 6.6 µM.
As for `Fc1ccc2[nH]cc(CNCC3(N4CCC(F)C4)COC3)c2c1` (stereo not shown) [TR-FTO-45], the IC50 in data set [1] (setting [8]) came to 30.5 µM. Besides, the elogD in data set [3] was determined as 1.03.
On to `CN(C)Cc1ccc(NCc2ccc(C(F)(F)F)cc2)nc1` [TR-YTH-20], for which the Ki in data set [4] (Ki values for YTH library against YTHDF2, read-out: Ki) was determined as 266 ± 92 pM; in data set [4] (read-out: Ki (pM) YTHDF2), 266 ± 92 pM; in data set [4] (read-out: Ki YTHDF2), 266 ± 92 pM.
On to `COc1cccc2c(CNCC3(N4CCCC4)COC3)c[nH]c12` [TR-FTO-14], for which, in data set [1] (setting [8]), the IC50 is greater than 40 µM. In data set [3], this compound yielded an elogD of 0.40.
Take `Fc1ccc2c(CNCC3(N4CCCC4)COC3)c[nH]c2c1` [TR-FTO-12]: the IC50 in data set [1] (setting [8]) worked out at 2.3 µM.
`FC1CCN(C2(CNCc3c[nH]c4ccccc34)COC2)C1` (stereo not shown) [TR-FTO-47]: the IC50 was 2.1 µM in data set [2] (setting [11]) and greater than 40 µM in data set [1] (setting [8]).
Consider `COc1ccccc1C(=O)N1CC(Oc2ccccc2)CC1C(=O)Nc1cccc(F)c1O` (stereo not shown) [TR-FTO 2-09], for which, in data set [2] (read-out: Enzymatic IC50 FTO), the IC50 is greater than 40 µM.
Regarding `FC(F)(F)Sc1ccc(CNCC2(N3CCCC3)COC2)cc1` [TR-FTO-40], in data set [1] (setting [8]), the IC50 is 3 µM. In data set [3], this compound gave an elogD of 1.29.
Turning to `O=S(=O)(Nc1ccc(Cl)c(Cl)c1)c1ccc(OC(F)(F)F)cc1` [TR-ALKBH5-33], the elogD in data set [3] (Table 800 compounds) is 1.24.
`O=C(C1CC1)N1CCN(S(=O)(=O)c2ccc(OC(F)(F)F)cc2)CC1` [TR-ALKBH5-41] displayed a chromatographic logD in data set [3] of 0.79.
For `Cc1ccc2[nH]cc(CNCC3(N4CCCC4)COC3)c2c1` [TR-FTO-09], in data set [1] (setting [8]), the IC50 was greater than 40 µM.
`Cc1ccc2c(CNCC3(N4CCCC4)COC3)c[nH]c2c1` [TR-FTO-42]: the IC50 worked out at 3 µM in data set [2] (setting [11]) and 13.4 µM in data set [1] (setting [8]).
As to `COc1ncc(-c2ccc3nc(N)sc3c2)cn1` [FTO-4, 6-(2-methoxypyrimidin-5-yl)benzo[d]thiazol-2-amine], the IC50 was determined as 3.39 ± 2.5 µM in data set [2] (setting [11]) and 39.4 ± 3.1 µM in data set [1] (setting [8]).
For `COc1ccc(CNC(=O)C2CC(Oc3ccccc3)CN2C(=O)c2ccccc2OC)c(OC)c1` (stereo not shown) [TR-FTO 2-04], the IC50 in data set [2] (read-out: Enzymatic IC50 FTO) was 6.67 ± 2.31 µM.
On to `c1cc2c(cc1CNCC1(N3CCCC3)COC1)OCCO2` [TR-FTO-27], for which the IC50 in data set [1] (setting [8]) is 5.9 µM. In data set [3], this compound displayed an elogD of 0.55.
For the compound `COc1ccccc1C(=O)N1CC(Oc2ccccc2)CC1C(=O)NCc1cccnc1` (stereo not shown) [TR-FTO 2-07], the half-inhibitory concentration (IC50) in data set [2] (read-out: Enzymatic IC50 FTO) was 0.17 ± 0.03 µM.
Take `COc1ccccc1C(=O)N1CC(Oc2ccccc2)CC1C(=O)Nc1ccc(C(C)=O)cc1` (stereo not shown) [TR-FTO 2-05]: the IC50 in data set [2] (read-out: Enzymatic IC50 FTO) amounted to 8.31 ± 2.07 µM.
As to `COC(=O)C1COC(c2ccc(OC)cc2O)N1` (stereo not shown) [ALK-17], in data set [1] (setting [5]), the IC50 was found to be 18.2 µM.
In the case of `c1cc2cc(CNCC3(N4CCCC4)COC3)ccc2[nH]1` [TR-FTO-37], in data set [1] (setting [8]), the IC50 worked out at 3.3 µM. This compound also showed an elogD in data set [3] of 0.75.
